*1 amine or outer side, *2 acyl side, *3 side chain or, on linkers, in order; H or OH if unused. Where a SMILES comes first, the peptide text is derived from it. Bridges are numbered along the chain shown (N, C = ends). [ ]: non-standard residue; d: D form. The star is where a group is joined. X3 = O=C(O)CN1CCN(CC(=O)O)CCN(CC(=O)NCCCOCCOCCOCCCN*)CCN(CC(=O)O)CC1; Pro(trans-4-NH2) = O=C([C@@H]1C[C@@H](N[*:3])CN1[*:1])[*:2]; DOTA = O=C(O)CN1CCN(CC(=O)O)CCN(CC(=O)*)CCN(CC(=O)O)CC1; Trp(5-Cl) = N[C@@H](Cc1c[nH]c2ccc(Cl)cc12)C(=O)O; Pyridine(2,6-diCH2) = c1cc(C[*:1])nc(C[*:2])c1; Phe(2-Cl) = N[C@@H](Cc1ccccc1Cl)C(=O)O; 1Nal = N[C@@H](Cc1cccc2ccccc12)C(=O)O; mXylylene = c1cc(C[*:1])cc(C[*:2])c1; Hyp = O=C(O)[C@@H]1C[C@@H](O)CN1; Suc = O=C(CCC(=O)[*:2])[*:1]; hLeu = CC(C)CC[C@H](N)C(=O)O; Api = NC1(C(=O)O)CCNCC1; Thp = NC1(C(=O)O)CCOCC1; Aib = CC(C)(N)C(=O)O
Target: T1, GIPR (CHO-K1-hGIPR cells) (Homo sapiens, UniProt P48546)
T1 construct: host or cells: CHO-K1
T1 sequence (P48546 22-466): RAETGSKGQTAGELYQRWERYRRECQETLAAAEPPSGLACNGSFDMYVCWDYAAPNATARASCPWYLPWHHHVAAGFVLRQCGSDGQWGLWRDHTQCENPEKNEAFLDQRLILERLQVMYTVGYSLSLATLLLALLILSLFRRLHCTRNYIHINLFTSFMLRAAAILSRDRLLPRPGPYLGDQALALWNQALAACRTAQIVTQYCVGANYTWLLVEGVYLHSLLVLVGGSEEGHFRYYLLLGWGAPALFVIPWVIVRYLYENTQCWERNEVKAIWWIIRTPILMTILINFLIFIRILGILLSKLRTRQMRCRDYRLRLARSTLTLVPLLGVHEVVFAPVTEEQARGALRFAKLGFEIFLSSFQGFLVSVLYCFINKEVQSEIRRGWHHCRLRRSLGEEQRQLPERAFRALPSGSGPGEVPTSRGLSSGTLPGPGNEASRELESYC
Assay: FACS binding assay
Settings: competition with 20 nM GIP-057, 4° C. for 1 hour, read-out: pIC50 Category (converted)
Outline: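 Median fluorescence in the APC channel, measured on washed CHO-K1 cells overexpressing human GIPR, was fitted by four-parameter logistic regression against peptide concentration to yield EC50 or IC50 values. Secondary labelling used APC-streptavidin (1 μg/mL, 30 min, ice).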

SMILES | IC50
CC[C@H](C)[C@@H]1NC(=O)[C@H](CC(C)C)NC(=O)C2(CCOCC2)NC(=O)[C@@H](NC(=O)[C@@H](CC(C)C)NC(=O)[C@H](CCC(=O)O)NC(=O)[C@@H]2C[C@@H](O)CN2C(=O)[C@H](Cc2c[nH]c3ccc(Cl)cc23)NC(=O)[C@H](Cc2ccccc2Cl)NC(=O)[C@H](CC(=O)O)NC(=O)CCC(=O)NCCCOCCOCCOCCCNC(=O)CN2CCN(CC(=O)O)CCN(CC(=O)O)CCN(CC(=O)O)CC2)CSCc2cccc(n2)CSC[C@@H](C(N)=O)NC1=O [GIP-387, DOTA-Ttds-Asp-Ocf-5Clw-Hyp-Glu-leu-[Cys(2Lut)-Thp-Leu-Ile-Cys]-NH2] ({X3-Suc}-D[Phe(2-Cl)][Trp(5-Cl)][Hyp]E[dL]C[Thp]LIC-NH2; linker 7-11 via Pyridine(2,6-diCH2)) | 10 to 79.4 nM
CC(=O)N[C@@H](CC(=O)O)C(=O)N[C@@H](Cc1c[nH]c2ccccc12)C(=O)N[C@@H](Cc1c[nH]c2ccc(Cl)cc12)C(=O)N1C[C@H](O)C[C@H]1C(=O)N[C@@H](CCC(=O)O)C(=O)N[C@H](CC(C)C)C(=O)N[C@H]1CSCc2cccc(n2)CSC[C@@H](C(=O)N[C@H](CCCCNC(=O)CN2CCN(CC(=O)O)CCN(CC(=O)O)CCN(CC(=O)O)CC2)C(N)=O)NC(=O)[C@H](Cc2ccccc2)NC(=O)[C@H](CC(C)C)NC(=O)C2(CCOCC2)NC1=O [GIP-389, Ac-Asp-Trp-5Clw-Hyp-Glu-leu-[Cys(2Lut)-Thp-Leu-Phe-Cys]-lys (DOTA)-NH2] (Ac-DW[Trp(5-Cl)][Hyp]E[dL]C[Thp]LFC[dK](DOTA)-NH2; linker 7-11 via Pyridine(2,6-diCH2)) | 10 to 79.4 nM
CC[C@H](C)[C@@H]1NC(=O)[C@H](CC(C)C)NC(=O)C2(CCOCC2)NC(=O)[C@@H](NC(=O)[C@@H](CC(C)C)NC(=O)[C@H](CCC(=O)O)NC(=O)[C@@H]2C[C@@H](NC(=O)CN3CCN(CC(=O)O)CCN(CC(=O)O)CCN(CC(=O)O)CC3)CN2C(=O)[C@H](Cc2c[nH]c3ccc(Cl)cc23)NC(=O)[C@H](Cc2ccccc2Cl)NC(=O)[C@H](CC(=O)O)NC(C)=O)CSCc2cccc(n2)CSC[C@@H](C(N)=O)NC1=O [GIP-390, Ac-Asp-Ocf-5Clw-Tap (DOTA)-Glu-leu-[Cys(2Lut)-Thp-Leu-Ile-Cys]-NH2] (Ac-D[Phe(2-Cl)][Trp(5-Cl)][Pro(trans-4-NH2)](DOTA)E[dL]C[Thp]LIC-NH2; linker 7-11 via Pyridine(2,6-diCH2)) | 10 to 79.4 nM
CC(=O)N[C@@H](CC(=O)O)C(=O)N[C@@H](Cc1c[nH]c2ccccc12)C(=O)N[C@@H](Cc1c[nH]c2ccc(Cl)cc12)C(=O)N1C[C@H](NC(=O)CN2CCN(CC(=O)O)CCN(CC(=O)O)CCN(CC(=O)O)CC2)C[C@H]1C(=O)N[C@@H](CCC(=O)O)C(=O)N[C@H](CC(C)C)C(=O)N[C@H]1CSCc2cccc(n2)CSC[C@@H](C(N)=O)NC(=O)[C@H](Cc2ccccc2)NC(=O)[C@H](CC(C)C)NC(=O)C2(CCOCC2)NC1=O [GIP-391, Ac-Asp-Trp-5Clw-Tap (DOTA)-Glu-leu-[Cys(2Lut)-Thp-Leu-Phe-Cys]-NH2] (Ac-DW[Trp(5-Cl)][Pro(trans-4-NH2)](DOTA)E[dL]C[Thp]LFC-NH2; linker 7-11 via Pyridine(2,6-diCH2)) | 10 to 79.4 nM
CC[C@H](C)[C@@H]1NC(=O)[C@H](CC(C)C)NC(=O)C2(CCN(C(=O)CN3CCN(CC(=O)O)CCN(CC(=O)O)CCN(CC(=O)O)CC3)CC2)NC(=O)[C@@H](NC(=O)[C@@H](CC(C)C)NC(=O)[C@H](CCC(=O)O)NC(=O)[C@@H]2C[C@@H](O)CN2C(=O)[C@H](Cc2c[nH]c3ccc(Cl)cc23)NC(=O)[C@H](Cc2ccccc2Cl)NC(=O)[C@H](CC(=O)O)NC(C)=O)CSCc2cccc(n2)CSC[C@@H](C(N)=O)NC1=O [GIP-392, Ac-Asp-Ocf-5Clw-Hyp-Glu-leu-[Cys(2Lut)-Apc(DOTA)-Leu-Ile-Cys]-NH2] (Ac-D[Phe(2-Cl)][Trp(5-Cl)][Hyp]E[dL]C[Api](DOTA)LIC-NH2; linker 7-11 via Pyridine(2,6-diCH2)) | 10 to 79.4 nM
CC[C@H](C)[C@@H]1NC(=O)[C@H](CC(C)C)NC(=O)C2(CCOCC2)NC(=O)[C@@H](NC(=O)[C@@H](CC(C)C)NC(=O)[C@@H]2CCCN2C(=O)[C@@H]2C[C@@H](O)CN2C(=O)[C@H](Cc2c[nH]c3ccc(Cl)cc23)NC(=O)[C@H](Cc2c[nH]c3ccccc23)NC(=O)[C@H](CC(=O)O)NC(C)=O)CSCc2cccc(n2)CSC[C@@H](C(N)=O)NC1=O [GIP-398, Ac-Asp-Trp-5Clw-Hyp-Pro-leu-[Cys(2Lut)-Thp-Leu-Ile-Cys]-NH2] (Ac-DW[Trp(5-Cl)][Hyp]P[dL]C[Thp]LIC-NH2; linker 7-11 via Pyridine(2,6-diCH2)) | 10 to 79.4 nM
CC[C@H](C)[C@@H]1NC(=O)[C@H](CC(C)C)NC(=O)C2(CCOCC2)NC(=O)[C@@H](NC(=O)[C@@H](CC(C)C)NC(=O)[C@H](CCC(=O)O)NC(=O)[C@@H]2C[C@@H](O)CN2C(=O)[C@H](Cc2c[nH]c3ccc(Cl)cc23)NC(=O)[C@H](Cc2ccccc2Cl)NC(=O)[C@H](CC(=O)O)NC(C)=O)CSCc2cccc(n2)CSC[C@@H](C(=O)N[C@H](CCCCNC(=O)CN2CCN(CC(=O)O)CCN(CC(=O)O)CCN(CC(=O)O)CC2)C(N)=O)NC1=O [GIP-399, Ac-Asp-Ocf-5Clw-Hyp-Glu-leu-[Cys(2Lut)-Thp-Leu-Ile-Cys]-lys(DOT A)-NH2] (Ac-D[Phe(2-Cl)][Trp(5-Cl)][Hyp]E[dL]C[Thp]LIC[dK](DOTA)-NH2; linker 7-11 via Pyridine(2,6-diCH2)) | 100 to 794 nM

More lines, now with the values ahead:

IC50 | SMILES
10 to 79.4 nM | CC(C)C[C@@H]1NC(=O)C2(CCOCC2)NC(=O)[C@@H](NC(=O)[C@@H](CC(C)C)NC(=O)[C@H](CCC(=O)O)NC(=O)[C@@H]2C[C@@H](O)CN2C(=O)[C@H](Cc2c[nH]c3ccc(Cl)cc23)NC(=O)[C@H](Cc2c[nH]c3ccccc23)NC(=O)[C@H](CC(=O)O)NC(=O)CCC(=O)NCCCOCCOCCOCCCNC(=O)CN2CCN(CC(=O)O)CCN(CC(=O)O)CCN(CC(=O)O)CC2)CSCc2cccc(n2)CSC[C@@H](C(N)=O)NC(=O)[C@H](Cc2ccccc2)NC1=O [GIP-388, DOTA-Ttds-Asp-Trp-5Clw-Hyp-Glu-leu-[Cys(2Lut)-Thp-Leu-Phe-Cys]-NH2] ({X3-Suc}-DW[Trp(5-Cl)][Hyp]E[dL]C[Thp]LFC-NH2; linker 7-11 via Pyridine(2,6-diCH2))
10 to 79.4 nM | CC(=O)N[C@@H](CC(=O)O)C(=O)N[C@@H](Cc1c[nH]c2ccccc12)C(=O)N[C@@H](Cc1c[nH]c2ccc(Cl)cc12)C(=O)N1C[C@H](O)C[C@H]1C(=O)N[C@@H](CCC(=O)O)C(=O)N[C@H](CC(C)C)C(=O)N[C@H]1CSCc2cccc(n2)CSC[C@@H](C(N)=O)NC(=O)[C@H](Cc2ccccc2)NC(=O)[C@H](CC(C)C)NC(=O)C2(CCN(C(=O)CN3CCN(CC(=O)O)CCN(CC(=O)O)CCN(CC(=O)O)CC3)CC2)NC1=O [GIP-393, Ac-Asp-Trp-5Clw-Hyp-Glu-leu-[Cys(2Lut)-Apc(DOTA)-Leu-Phe-Cys]-NH2] (Ac-DW[Trp(5-Cl)][Hyp]E[dL]C[Api](DOTA)LFC-NH2; linker 7-11 via Pyridine(2,6-diCH2))
10 to 79.4 nM | CC[C@H](C)[C@@H]1NC(=O)[C@H](CC(C)C)NC(=O)C(C)(C)NC(=O)[C@@H](NC(=O)[C@H](CCC(C)C)NC(=O)[C@H](CCC(=O)O)NC(=O)[C@@H]2C[C@@H](NC(=O)CN3CCN(CC(=O)O)CCN(CC(=O)O)CCN(CC(=O)O)CC3)CN2C(=O)[C@H](Cc2cccc3ccccc23)NC(=O)[C@H](Cc2c[nH]c3ccccc23)NC(=O)[C@H](CC(=O)O)NC(C)=O)CSCc2cccc(c2)CSC[C@@H](C(N)=O)NC1=O [GIP-394, Ac-Asp-Trp-1Ni-Tap(DOTA)-Glu-Hle-[Cys(3MeBn)-Aib-Leu-Ile-Cys]-NH2] (Ac-DW[1Nal][Pro(trans-4-NH2)](DOTA)E[hLeu]C[Aib]LIC-NH2; linker 7-11 via mXylylene)
10 to 79.4 nM | CC[C@H](C)[C@@H]1NC(=O)[C@H](CC(C)C)NC(=O)C2(CCOCC2)NC(=O)[C@@H](NC(=O)[C@@H](CC(C)C)NC(=O)[C@H](Cc2ccccc2)NC(=O)[C@@H]2C[C@@H](O)CN2C(=O)[C@H](Cc2c[nH]c3ccc(Cl)cc23)NC(=O)[C@H](Cc2c[nH]c3ccccc23)NC(=O)[C@H](CC(=O)O)NC(C)=O)CSCc2cccc(n2)CSC[C@@H](C(N)=O)NC1=O [GIP-396, Ac-Asp-Trp-5Clw-Hyp-Phe-leu-[Cys(2Lut)-Thp-Leu-Ile-Cys]-NH2] (Ac-DW[Trp(5-Cl)][Hyp]F[dL]C[Thp]LIC-NH2; linker 7-11 via Pyridine(2,6-diCH2))
10 to 79.4 nM | CC[C@H](C)[C@@H]1NC(=O)[C@H](CC(C)C)NC(=O)C2(CCOCC2)NC(=O)[C@@H](NC(=O)[C@@H](CC(C)C)NC(=O)[C@H](Cc2c[nH]c3ccccc23)NC(=O)[C@@H]2C[C@@H](O)CN2C(=O)[C@H](Cc2c[nH]c3ccc(Cl)cc23)NC(=O)[C@H](Cc2c[nH]c3ccccc23)NC(=O)[C@H](CC(=O)O)NC(C)=O)CSCc2cccc(n2)CSC[C@@H](C(N)=O)NC1=O [GIP-397, Ac-Asp-Trp-5Clw-Hyp-Trp-leu-[Cys(2Lut)-Thp-Leu-Ile-Cys]-NH2] (Ac-DW[Trp(5-Cl)][Hyp]W[dL]C[Thp]LIC-NH2; linker 7-11 via Pyridine(2,6-diCH2))
100 to 794 nM | CC[C@H](C)[C@@H]1NC(=O)[C@H](CC(C)C)NC(=O)C2(CCN(C(=O)CN3CCN(CC(=O)O)CCN(CC(=O)O)CCN(CC(=O)O)CC3)CC2)NC(=O)[C@@H](NC(=O)[C@H](CCC(C)C)NC(=O)[C@H](CCC(=O)O)NC(=O)[C@@H]2CCCN2C(=O)[C@H](Cc2cccc3ccccc23)NC(=O)[C@H](Cc2c[nH]c3ccccc23)NC(=O)[C@H](CC(=O)O)NC(C)=O)CSCc2cccc(c2)CSC[C@@H](C(N)=O)NC1=O [GIP-400, Ac-Asp-Trp-1Ni-Pro-Glu-Hle-[Cys(3MeBn)-Apc(DOTA)-Leu-Ile-Cys]-NH2] (Ac-DW[1Nal]PE[hLeu]C[Api](DOTA)LIC-NH2; linker 7-11 via mXylylene)

From patent publication US20250296971A1, “GASTRIC INHIBITORY PEPTIDE RECEPTOR LIGANDS” (priority 2021, published 2025)
